Laboratory results from ChEMBL document CHEMBL1122749, “Synthesis and biological activity of 5-fluoro-2',3'-dideoxy-3'-fluorouridine and its 5'-phosphate” (J Med Chem, 1984).
pIC50, pKi: −log10 of the molar value. Blank lines part the entries; values can stand above or below the compound they belong to.

Columns and labels:
L1210 [1] = assay: In vitro concentration required for 50% inhibition (IC50) of growth of L1210 mouse leukemia cells in culture; type: functional, cell-based
Thymidine phosphorylase = target: T1, Thymidine phosphorylase (Mus musculus, UniProt Q99N42); assay: In vitro non-competitive inhibition of cleavage of Thymidine (dThd) phosphorylase isolated from Lewis lung carcinoma.; type: tissue-based
T1 sequence (Q99N42 whole entry): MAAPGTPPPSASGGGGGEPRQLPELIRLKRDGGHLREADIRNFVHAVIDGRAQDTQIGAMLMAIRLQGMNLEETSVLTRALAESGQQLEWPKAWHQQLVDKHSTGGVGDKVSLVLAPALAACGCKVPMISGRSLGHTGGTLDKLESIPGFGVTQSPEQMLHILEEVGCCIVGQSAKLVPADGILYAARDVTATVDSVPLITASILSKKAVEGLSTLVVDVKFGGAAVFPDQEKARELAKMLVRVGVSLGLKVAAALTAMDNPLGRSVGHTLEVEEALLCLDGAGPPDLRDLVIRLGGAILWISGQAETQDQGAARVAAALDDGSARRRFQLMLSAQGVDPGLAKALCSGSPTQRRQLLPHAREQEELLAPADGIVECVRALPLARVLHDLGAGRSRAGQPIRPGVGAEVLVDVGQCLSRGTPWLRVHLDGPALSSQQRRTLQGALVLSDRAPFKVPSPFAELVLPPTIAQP

[2] = Apparent rate constant Kon for inactivation of dTMP synthase.
[3] = target: Thymidylate synthase (Lactobacillus casei); assay: In vitro competitive inhibition of dTMP synthetase with respect to substrate dUMP.
[4] = Apparent rate constant Koff for inactivation of dTMP synthase.
L1210 [5] = assay: In vitro concentration required for 50% inhibition (IC50) of growth of L1210 mouse leukemia cells in culture.; type: functional, cell-based

pIC50 (L1210 [1]): 5.47
pKi (Thymidine phosphorylase): 2.77
Structure (SMILES): O=c1[nH]c(=O)n([C@H]2C[C@H](F)[C@@H](CO)O2)cc1F

Kon [2]: 0.029 s⁻¹
pKi [3]: 3.89
K off [4]: 0.000233 s⁻¹
Structure (SMILES): O=c1[nH]c(=O)n(C2CC(F)C(COP(=O)(O)O)O2)cc1F (stereo unspecified)

pIC50 (L1210 [5]): 9.30
Structure (SMILES): O=c1[nH]c(=O)n([C@H]2C[C@H](O)[C@@H](CO)O2)cc1F [FLOXURIDINE]
